Results reported in patent US20240226211A9, “SEAWEED EXTRACTS, ISOLATED COMPOUNDS, AND METHODS OF TREATMENT” (University of Florida Research Foundation, Incorporated, priority 2017, published 2024).

What was measured:
[1] = tested on: ARE-luciferase reporter (human NQO1-ARE) in IMR-32 cells; test: ARE-luc reporter assay in IMR-32 cells; format: cell-based; conditions: relative to Compounds 1 and 2; assay not specified
Source text: The ARE-luciferase reporter construct (ARE-luc) contains the core sequence of human NQO1-ARE1. The mock plasmid (pcDNA3-mRFP) was purchased from Addgene (plasmid 13032). The following plasmids were reported by Zhang et a/.2003 [Zhang, D. D., and Hannink, M. (2003) Distinct cysteine residues in Keap1 are required for Keap1-dependent ubiquitination of Nrf2 and for stabilization of Nrf2 by chemopreventive agents and oxidative stress. Mol. Cell. Biol. 23, 8137-8151]. The Keap1-CBD plasmid carries the entire open reading frame (ORF) of human Keap1 fused to the chitin binding domain (CBD) of the Bacillus circulans chitinase A1 gene upstream of the Keap1 stop codon. Oligonucleotide-directed mutagenesis was used to generate the Keap1-C151S-CBD and Keap1-C288S-CBD plasmids. The HA-Cul3 plasmid was constructed by fusing an N-terminal hemagglutinin (HA) tag with a cDNA sequence coding for amino acids 1-380 of human Cul3 gene. The Gal4-Neh2 expression vector contains the codons for the first 97 amino acids (Neh2 domain) of human Nrf2 fused to the ORF of the Gal4 DNA-binding domain
An ARE-luciferase reporter plasmid and CMV-GFP plasmid (to monitor transfection efficiency) were co-transfected into a human androgen-sensitive prostate cancer cell line, LNCaP (6×10^4 cells/well), and a human neuroblastoma cell line, IMR-32 (3×10^4 cells/well), using Fugene® HD (Roche Diagnostics) in 96-well format. […] J Biol Chem. 2002; 277:388-394; Lee J M, Hanson J M, Chu W A, Johnson J A. Phosphatidylinositol 3-kinase, not extracellular signal-regulated kinase, regulates activation of the antioxidant-responsive element in IMR-32 human neuroblastoma cells. […] After 24 hours of incubation, cells were treated with extracts from Cymopolia barbata, a negative control (DMSO, 1%, v/v), and a positive control ([…] sulforaphane, SF, and tert-butylhydroquinone, tBHQ, respectively.) 24 hours post-treatment, luciferase activity was detected using BriteLite detection reagent (PerkinElmer). […]

[2] = tested on: NQO1; test: qPCR of NQO1 transcript in IMR-32 cells; format: cell-based, human; conditions: 12 h
Description: The cells were seeded in 6-well format (see immunoblot) and treated with a solvent control (DMSO, 1%, v/v), isolated compounds, or extracts for 12 h. The RNeasy Mini Kit (Qiagen) was used to collect total RNA from cells, while for mouse tissue, TRIzol reagent (Invitrogen) was used. In each case, total RNAs (2 μg) were reverse-transcribed into cDNAs, which were used as templates for TaqMan gene expression assay (Applied Biosystems) and detected using the 7300 Real-Time PCR System (Applied Biosystems). Each qPCR sample was tested in triplicate as a 25 μL total reaction volume (12.5 μL of Taqman 2× universal master mix, 1.25 μL of a 20× TaqMan gene expression assay probe, 1 μL of the above cDNA, and 10.25 μL of RNase-free sterile water). The qPCR method was designed as following: 50° C. for 2 min, 95° C. for 10 min, and 40 cycles of 95° C. for 15 s and 60° C. for 1 min. Endogenous controls used included GAPDH for IMR-32 cells and β-actin to normalize for RAW264.7 cells and mouse tissues.

[3] = biological target: T1, full-length human recombinant KEAP1 (Homo sapiens, UniProt Q14145); test: LC-MS/MS mapping of cysteine adducts on recombinant KEAP1; format: binding; conditions: excess CymQ
T1 construct: cysteine residues of full-length human recombinant KEAP1 in vitro
Source text: To obtain a global picture of cysteine modification of Keap1, rather than focusing on known functionally relevant residues, a proteomics approach was utilized, monitoring the effect of activated cymopol (CymQ) on cysteine residues of full-length human recombinant KEAP1 in vitro, similarly as described [Wang R, et al. (2013) In vitro and in vivo characterization of a tunable dual-reactivity probe of the Nrf2-ARE pathway. ACS Chem Biol 8(8):1764-1774; Hur W, et al. (2010) A small-molecule inducer of the antioxidant response element. Chem Biol 17(5):537-547]. Briefly, KEAP1 was treated with excess CymQ and adducts were mapped by LC-MS/MS in three separate experiments (five different conditions) using DTT, chymotrypsin and trypsin as the variables for different sample preparations, in order to capture more potential adducts. The most abundant modification observed was a mass increase of 242, resulting from an addition-elimination reaction of 5 (FIGS. 54 and 55) with loss of bromine, which is unique to CymQ compared with tBQ. Additional representative spectra for different types of tags can be found in SI Appendix, Fig. S4. […] Most ARE activators belong to class 1 of this cysteine code where Cys151 is readily modified, although contradictory results are shown for these compounds based on the experimental conditions used. […]

[4] = format: physicochemical
Description: Silver oxide (14.2 mg) was added to a solution of cymopol 1 (6.6 mg) in dichloromethane (2.5 mL). The reaction mixture was stirred at room temperature for 15 min before being evaporated in vacuum. The crude product was purified by preparative TLC plate (ethyl acetate/hexane 1:4, v/v, Rf 0.8) to give 4.92 mg product 5 (75% yield).

T1 sequence (Q14145 whole entry): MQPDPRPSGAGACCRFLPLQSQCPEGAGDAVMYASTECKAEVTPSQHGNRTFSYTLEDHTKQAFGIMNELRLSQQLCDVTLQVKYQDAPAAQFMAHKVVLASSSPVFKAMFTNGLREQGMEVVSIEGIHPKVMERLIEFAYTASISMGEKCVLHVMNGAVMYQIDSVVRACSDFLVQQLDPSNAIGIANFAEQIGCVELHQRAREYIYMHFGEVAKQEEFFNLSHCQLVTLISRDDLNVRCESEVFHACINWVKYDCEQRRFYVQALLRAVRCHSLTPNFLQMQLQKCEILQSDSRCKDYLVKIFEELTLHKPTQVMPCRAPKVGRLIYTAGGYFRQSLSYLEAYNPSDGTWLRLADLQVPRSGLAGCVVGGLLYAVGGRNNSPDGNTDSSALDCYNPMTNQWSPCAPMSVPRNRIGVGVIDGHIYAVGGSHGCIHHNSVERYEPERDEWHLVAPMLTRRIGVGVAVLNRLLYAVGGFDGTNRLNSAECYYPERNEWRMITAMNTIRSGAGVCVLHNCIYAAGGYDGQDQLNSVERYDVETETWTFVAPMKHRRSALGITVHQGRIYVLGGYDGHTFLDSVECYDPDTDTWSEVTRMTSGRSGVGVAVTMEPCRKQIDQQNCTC

Row | Compound | anti-oxidant efficacy [1] | Nqo1 transcript induction by quinone versus hydroquinone counterpart [2] | alkylation of highly reactive cysteines including Cys151 [3] | number of KEAP1 cysteines modified [3] | stability in air [4]
1 | C=C1CCC(Br)C(C)(C)C1Cc1cc(OC)c(Br)cc1O (stereo not drawn) [Compound 4, 5-bromo-2-((3-bromo-2,2-dimethyl-6-methylenecyclohexyl)methyl)-4-methoxyphenol] | reduced anti-oxidant efficacy |  |  |  | 
2 | cymopol quinone [Compound 5] |  | retained the bioactivity | failed to alkylate | 10 | not stable in air
3 | CC12CCC(Br)C(C)(C)C1Cc1cc(O)c(Br)cc1O2 (stereo not drawn) [Compound 3, 2,6-dibromo-1,1,4a-trimethyl-2,3,4,4a,9,9a-hexahydro-1H-xanthen-7-ol] | reduced anti-oxidant efficacy |  |  |  | 
